Source: patent US20010051654A1, “Treatment of inflammatory and autoimmune diseases” (priority 1997, published 2001)
Like-named read-outs stand apart in the source and are kept apart here.

Legend:
[1] = Twice weekly intravenous dosing for 4 weeks in Cynomolgus monkeys, clinical condition; format: in vivo; conditions: one high-dose male (0.100 mg/kg/dose), Day 26 after receiving 8 doses
Description: (§1) Male and female Cynomolgus monkeys (2.2 to 3.5 kg) were assigned to four groups (5/sex/group). Each group received 0 (vehicle control), 0.045, 0.067 or 0.100 mg/kg/dose of 1 as a single intravenous injection in a dose volume of 0.3 mL/kg twice weekly for 4 weeks (days 1, 5, 8, 12, 15, 19, 22 and 26). […] Three males from the control, low- and mid-dose groups, two high-dose males, and three females/group were sacrificed at the end of treatment on Day 27. Two animals/sex/group were designated as recovery animals and received treatment for 4 weeks followed by 2 weeks of recovery; they were sacrificed on Day 41.
(§2) Blood was collected for 20 S proteasome activity determination prior to treatment, at 1.0 h after dosing on Days 1, 8, 15 and 22, and at 1.0 h prior to dosing on Days 5, 12, 19 and 26; and on Days 31, 34, 38, and 41 (recovery sacrifice animals).

20 S proteasome [2] = test: Ex vivo 20 S proteasome activity in primate white blood cells; design: species or system Cynomolgus monkeys
Description: as §1, §2

20 S proteasome [3] = test: Ex vivo 20 S proteasome activity in peripheral white blood cells of mice
Description: (§3) This preparation procedure applies to blood samples collected from mammals, particularly rats, mice, dogs, pigs, rabbits, non-human primates, or human subjects. Peripheral white blood cells are separated from blood samples upon collection for storage at about −70° C. until tested. To avoid interference with the assay due to the presence of endogenous proteasome inhibitors, it is important that red blood cells be rigorously excluded.
The blood sample is diluted 1:1 (v/v) with sterile saline, and the blood-saline mixture is layered over NYCOPREP™ separation medium (GIBCO BRL Products) in a 14×75 mm polystyrene test tube at a ratio of approximately 2:1 blood:NYCOPREP™. The sample is centrifuged at 500 x g for approximately 30 minutes at room temperature. The top layer is removed, leaving ˜2-3 mm of the cell band between the top and bottom layers. The remaining cell band is transferred by pipette to a clean centrifuge tube. The cell band is washed with 3 mL of cold phosphate-buffered saline and centrifuged at 400 x g for 5 minutes at 4° C. The supernatant is poured off and the pellet is resuspended in ˜1 mL of cold phosphate-buffered saline. The suspension is transferred to a 1.5 mL Eppendorf microfuge tube and microfuged at 6600 x g for approximately 10 minutes at 4° C. […]
The amount of 20 S proteasome activity in the test sample is calculated according to the following formula: [formula] […]

20 S proteasome [4] = test: Ex vivo 20 S proteasome activity in peripheral white blood cells of rats
Description: as §3
The blood sample is diluted 1:1 (v/v) with sterile saline, and the blood-saline mixture is layered over NYCOPREP™ separation medium (GIBCO BRL Products) in a 14×75 mm polystyrene test tube at a ratio of approximately 2:1 blood:NYCOPREP™. The sample is centrifuged at 500 x g for approximately 30 minutes at room temperature. The top layer is removed, leaving ˜2-3 mm of the cell band between the top and bottom layers. The remaining cell band is transferred by pipette to a clean centrifuge tube. The cell band is washed with 3 mL of cold phosphate-buffered saline and centrifuged at 400 x g for 5 minutes at 4° C. The supernatant is poured off and the pellet is resuspended in ˜1 mL of cold phosphate-buffered saline. The suspension is transferred to a 1.5 mL Eppendorf microfuge tube and microfuged at 6600 x g for approximately 10 minutes at 4° C. The supernatant is aspirated off and the cell pellet is stored at −70° C.±10° C.
Measurement of this rate in the absence and in the presence of an inhibitor allows a determination of how enzyme is bound by inhibitor. This assay is used to measure 20 S proteasome activity in peripheral white blood cells in mammals, particularly rats, mice, dogs, pigs, rabbits, non-human primates, or human subjects.
The amount of 20 S proteasome activity in the test sample is calculated according to the following formula: [formula]
Dose formulations of 1 were prepared daily during the course of the study. Dilutions were prepared from a stock solution. The stock solution of 1 was made up in 98% saline (0.9%), 2% ethanol with 0.1% ascorbic acid. Dilutions of the stock were made in the same vehicle.
Drugs were administered in vehicle intravenously (IV) using a dose volume of 100 μL per mouse or 1.0 mL/kg in rats. Control groups were administered with the vehicle (98% saline [0.9%], 2% ethanol, 0.1% ascorbic acid). Animals were dosed with 1 as a single IV bolus given either once or on multiple occasions.
Following IV dosing with 1, blood was withdrawn at various time points and peripheral white blood cells were isolated.
Blood samples were collected at 1.0, 24 and 48 h following administration of 1.
In an additional repeat dose study, male Sprague-Dawley rats (250 to 450 g; n=6 per group) were treated with twice weekly intravenous doses of 1 (0.01 to 0.35 mg/kg/day in a dose volume of 1.0 mL/kg) for two weeks. The vehicle was 0. […] Blood samples were collected 1.0 h after the last dose for evaluation of 20 S proteasome activity.

20 S proteasome [5] = test: Chymotryptic and tryptic assays in rat white blood cell lysates; format: biochemical; conditions: fit, FIG. 19
Excerpt: Data was fitted as in Example 10, to give kc/kt=17.6±and βt=1.1±0.2 (FIG. 19).

20 S proteasome [6] = target: T1, 20 S proteasome (Rattus norvegicus, UniProt P28075)
T1 sequence (P28075 60-263): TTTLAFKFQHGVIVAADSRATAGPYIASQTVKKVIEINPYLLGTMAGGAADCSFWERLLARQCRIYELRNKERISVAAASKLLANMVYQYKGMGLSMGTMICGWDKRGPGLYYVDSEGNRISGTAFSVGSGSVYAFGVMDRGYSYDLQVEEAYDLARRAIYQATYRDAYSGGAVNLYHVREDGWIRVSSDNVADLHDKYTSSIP
Description: In two studies, female Wistar rats (150 to 200 g) were administered a single intravenous dose of 1 (0.03, 0.1 and 0.3 mg/kg in a dose volume of 1.0 mL/kg). […] Tissue samples were collected from liver and brain at 1.0, 24 and 48 h following administration for evaluation of 20 S proteasome activity.
In a third study, male Sprague-Dawley rats (250 to 450 g) were administered a single intravenous dose of 1 (0.1 and 0.3 mg/kg in a dose volume of 1.0 mL/kg). […] Blood and tissue samples were collected 1.0 h following administration for evaluation of 20 S proteasome activity. The tissues collected were brain, colon, liver, muscle (gastrocnemius), prostate and testes.

[7] = alternate daily IV for 14 days, 24 h after last dose
[8] = daily IV for 7 days, 24 h after last dose
[9] = once weekly IV for 8 weeks, 24 h after last dose
[10] = 1.0 h after single IV 0.1 and 0.3 mg/kg, male Sprague-Dawley rats

## CC(C)C[C@H](NC(=O)[C@H](Cc1ccccc1)NC(=O)c1cnccn1)B(O)O [Compound 1, N-(pyrazine)carbonyl-L-phenylalanine-L-leucine boronic acid]
[1]
  clinical condition: sacrificed in moribund condition
20 S proteasome [2]; 1.0 h after dosing, 0.045, 0.067 or 0.100 mg/kg/dose IV twice weekly for 4 weeks
  white blood cell 20 S proteasome activity: significant and dose-related decrease
20 S proteasome [2]; 72 hours after dosing, prior to the subsequent dose
  white blood cell 20 S proteasome activity: recovered
20 S proteasome [2]; high-dose male at sacrifice on Day 26 after 8 doses
  white blood cell 20 S proteasome activity of the moribund animal: low residual 20 S proteasome activity
20 S proteasome [3]; 1.0 h after single IV 0.1 to 3.0 mg/kg, all dose groups
  20 S proteasome activity in white blood cells: significant (p<0.05) dose-related decrease
20 S proteasome [3]; 24 h after single IV 0.1 to 3.0 mg/kg
  20 S proteasome activity in white blood cells: starts to recover
20 S proteasome [4]; 1.0 h after single IV 0.03 to 0.3 mg/kg, female Wistar rats
  20 S proteasome activity in white blood cells: significant (p<0.05) dose-related decrease
20 S proteasome [4]; 24 h after single IV 0.03 to 0.3 mg/kg, female Wistar rats
  20 S proteasome activity in white blood cells: smaller, but remained significant (p <0.05) in the higher dose groups
20 S proteasome [4]; 48 h after single IV 0.03 to 0.3 mg/kg, female Wistar rats
  20 S proteasome activity in white blood cells: no longer significantly decreased
20 S proteasome [4]; [7]
  20 S proteasome activity in white blood cells: significant dose-related decrease
  dose groups with significant (p<0.05) decrease in 20 S proteasome activity: > 0.2 mg/kg
20 S proteasome [4]; [8]
  20 S proteasome activity in white blood cells: dose-related decrease
  doses with significant inhibition of 20 S proteasome activity: > 0.05 mg/kg
20 S proteasome [4]; [9]
  20 S proteasome activity in white blood cells: significant (p<0.05) dose-related decrease
  dose groups with significant (p<0.05) decrease in 20 S proteasome activity: > 0.1 mg/kg
20 S proteasome [4]; twice weekly IV for 2 weeks (4 doses, 0.01 to 0.35 mg/kg/day), 1.0 h after last dose, male Sprague-Dawley rats
  20 S proteasome activity in white blood cells: dose-related decrease
20 S proteasome [4]; twice weekly IV for 2 weeks, 1.0 h after last dose, male Sprague-Dawley rats
  dose groups with significant (p<0.05) decrease in 20 S proteasome activity: > 0.03 mg/kg
20 S proteasome [5]
  βt (activation factor of tryptic activity): 1.1±0.2
20 S proteasome [6]; 1.0 h after single IV 0.03, 0.1, 0.3 mg/kg, female Wistar rats
  20 S proteasome activity in rat liver: significant (p<0.05) dose-related decrease
20 S proteasome [6]; [10]
  20 S proteasome activity in peripheral white blood cells, colon, liver, muscle (gastrocnemius), and prostate: Significant (p<0.05) dose-related decreases
  20 S proteasome inhibition in brain and testes: No 20 S proteasome inhibition
20 S proteasome [6]; 24 h after single IV, high dose group 0.3 mg/kg, female Wistar rats
  20 S proteasome activity in rat liver: smaller, but remained significant (p<0.05) in the high dose group
20 S proteasome [6]; 48 h after single IV, female Wistar rats
  20 S proteasome activity in rat liver: returned to baseline
20 S proteasome [6]; inferred from absent 20 S proteasome inhibition, female Wistar rats
  penetration into brain tissue: lack of penetration
20 S proteasome [6]; inferred from absent 20 S proteasome inhibition, male Sprague-Dawley rats
  penetration into brain and testes: lack of 1 penetration
20 S proteasome [6]; single IV 0.03, 0.1, 0.3 mg/kg, female Wistar rats
  20 S proteasome inhibition in brain tissue: No 20 S proteasome inhibition
